Laboratory results reported in patent US10363239B2, “Method for inhibiting growth of cancer cells” (Pain Therapeutics, Inc., priority 2013, dated 2019).
Like-named read-outs stand apart in the source and are kept apart here.

Legend:
[1] = target: FLNA pentapeptide of SEQ ID NO: 1 (Bn-VAKGL) (Homo sapiens, UniProt P21333); experiment: FITC-NLX-based FLNA screening assay (inhibition of FITC-naloxone binding to Bn-VAKGL on streptavidin plates); conditions: 10 nM FITC-NLX
mu opiate receptor (MOR) = experiment: MOR agonist activity using [35S]GTPγS binding assay in striatal membranes; type: biochemical; conditions: for MOR agonist activity ([35S]GTPγS binding), FLNA-Binding Compound as Agonist 1 μM + BFNA: 1 μM compound + 1 μM β-funaltrexamine
Summary of the method: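 Striatal membranes (200 μg) were preincubated 5 min at 30 °C in HEPES pH 7.5 with 100 mM NaCl, 1 mM MgCl2 and 0.5 nM [35S]GTPγS, then 5 min more with 0.1–10 μM compound. Gαo was immunoprecipitated and bound radioactivity counted by scintillation.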

[2] = read-out: Percent Binding Inhibition, FLNA-binding compound 0.01 μM
[3] = read-out: Percent Binding Inhibition, FLNA-binding compound 0.1 μM
[4] = read-out: Percent Binding Inhibition, FLNA-binding compound 1 μM
[5] = Series C-1, 0.1 μM compound, relative to DAMGO
[6] = Series C-1, 0.1 μM compound, [35S]GTPγS binding to Gαo, striatal membranes
[7] = Series C-1, 1 μM compound + 1 μM β-FNA
[8] = Series C-1, 1 μM compound + β-FNA, relative to DAMGO + BFNA
[9] = Series C-1, 1 μM compound, relative to DAMGO
[10] = Series C-1, 1 μM compound, [35S]GTPγS binding to Gαo, striatal membranes
[11] = FLNA-binding compound 0.01 μM, read-out: Percent Binding Inhibition
[12] = FLNA-binding compound 0.1 μM, read-out: Percent Binding Inhibition
[13] = FLNA-binding compound 1 μM, read-out: Percent Binding Inhibition
[14] = 0.1 μM compound relative to DAMGO
[15] = 1 μM compound + BFNA relative to DAMGO + BFNA
[16] = 1 μM compound relative to DAMGO

SMILES | inhibition at 0.01 µM [1, 2] | inhibition at 0.1 µM [1, 3] | inhibition at 1 µM [1, 4] | % DAMGO (0.1 μM) (mu opiate receptor (MOR); [5]) | Concentration of FLNA-Binding Compound as Agonist 0.1 μM (mu opiate receptor (MOR); [6]) | Concentration of FLNA-Binding Compound as Agonist 1 μM + BFNA (mu opiate receptor (MOR); [7]) | % DAMGO + BFNA (mu opiate receptor (MOR); [8]) | % DAMGO (1 μM) (mu opiate receptor (MOR); [9]) | Concentration of FLNA-Binding Compound as Agonist 1 μM (mu opiate receptor (MOR); [10]) | inhibition at 0.01 µM [1, 11] | inhibition at 0.1 µM [1, 12] | inhibition at 1 µM [1, 13] | also measured
O=S(=O)(c1ccc(Br)cc1)N1CCC2(CC1)OCCN2S(=O)(=O)c1ccc(Br)cc1 [Compound C0025] | 37.2% | 41.4% | 45.1% | 122.6% | 235.7% | 80.2% | 182.7% | 117.5% | 320.7% | – | – | – | –
CN1CCC2(CC1)NC(=O)CN2Cc1ccccc1 [Compound C0104M] | – | – | – | – | – | – | – | – | – | 51.4% | 54.1% | 55.2% | % DAMGO (0.1 μM) (mu opiate receptor (MOR); Series C-2, 0.1 μM compound, relative to DAMGO): 99.5%; MOR agonist activity, percent [35S]GTPγS binding at the stated compound concentration (mu opiate receptor (MOR); Series C-2, 0.1 μM compound, [35S]GTPγS binding to Gαo, striatal membranes): 188.2%; MOR agonist activity, percent [35S]GTPγS binding at the stated compound concentration (mu opiate receptor (MOR); Series C-2, 1 μM compound + 1 μM β-FNA): 143.8%; % DAMGO + BFNA (mu opiate receptor (MOR); Series C-2, 1 μM compound + β-FNA, relative to DAMGO + BFNA): 296.5%; % DAMGO (1 μM) (mu opiate receptor (MOR); Series C-2, 1 μM compound, relative to DAMGO): 96.3%; MOR agonist activity, percent [35S]GTPγS binding at the stated compound concentration (mu opiate receptor (MOR); Series C-2, 1 μM compound, [35S]GTPγS binding to Gαo, striatal membranes): 238.9%
COc1ccccc1S(=O)(=O)N1CCC2(CC1)OCCN2S(=O)(=O)c1ccccc1OC [Compound C0003] | 38.3% | 45.3% | 48.8% | 91.9% | 162.3% | 107.7% | 163.9% | 83.3% | 215.9% | – | – | – | –
CC(=O)c1ccc(S(=O)(=O)N2CCC3(CC2)NC(=O)CN3S(=O)(=O)c2ccc(C(C)=O)cc2)cc1 [Compound C0064] | 37.3% | 44.4% | 49.2% | 124.2% | 213.8% | 38.1% | 110.4% | 159.1% | 349.6% | – | – | – | –
CN(C)c1cccc(OCC(O)CN2CCc3ccccc3C2)c1 (stereo not drawn) [Compound A0050] | – | – | – | – | – | – | – | – | – | 42.9% | 49.8% | 52.1% | MOR agonist activity ([35S]GTPγS binding), FLNA-Binding Compound as Agonist 0.1 μM (mu opiate receptor (MOR); 0.1 μM compound): 151.0%; % DAMGO (0.1 μM) (mu opiate receptor (MOR); [14]): 77.0%; MOR agonist activity ([35S]GTPγS binding), FLNA-Binding Compound as Agonist 1 μM (mu opiate receptor (MOR); 1 μM compound): 189.3%; MOR agonist activity ([35S]GTPγS binding), FLNA-Binding Compound as Agonist 1 μM + BFNA (mu opiate receptor (MOR)): 81.0%; % DAMGO + BFNA (mu opiate receptor (MOR); [15]): 109.6%; % DAMGO (1 μM) (mu opiate receptor (MOR); [16]): 68.6%
COc1c2c(cc3c1C(CC(=O)c1ccncc1)[N+](C)(C)CC3)OCO2 (stereo not drawn) [Compound B0005] | 31.8% | 34.8% | 41.7% | – | – | – | – | – | – | – | – | – | % DAMGO (0.1 μM) (mu opiate receptor (MOR); Series B, 0.1 μM compound, relative to DAMGO): 50.5%; MOR agonist activity, percent [35S]GTPγS binding at the stated compound concentration (mu opiate receptor (MOR); Series B, 0.1 μM compound, [35S]GTPγS binding to Gαo, striatal membranes): 89.2%; MOR agonist activity, percent [35S]GTPγS binding at the stated compound concentration (mu opiate receptor (MOR); Series B, 1 μM compound + 1 μM β-FNA): 45.1%; % DAMGO + BFNA (mu opiate receptor (MOR); Series B, 1 μM compound + β-FNA, relative to DAMGO + BFNA): 68.6%; % DAMGO (1 μM) (mu opiate receptor (MOR); Series B, 1 μM compound, relative to DAMGO): 42.6%; MOR agonist activity, percent [35S]GTPγS binding at the stated compound concentration (mu opiate receptor (MOR); Series B, 1 μM compound, [35S]GTPγS binding to Gαo, striatal membranes): 110.4%
CC1CN(CC(O)COc2ccc(Cl)cc2)CC(C)O1 (stereo not drawn) [Compound A0047] | – | – | – | – | – | – | – | – | – | 40.9% | 42.9% | 44.5% | MOR agonist activity ([35S]GTPγS binding), FLNA-Binding Compound as Agonist 0.1 μM (mu opiate receptor (MOR); 0.1 μM compound): 233.0%; % DAMGO (0.1 μM) (mu opiate receptor (MOR); [14]): 118.8%; MOR agonist activity ([35S]GTPγS binding), FLNA-Binding Compound as Agonist 1 μM (mu opiate receptor (MOR); 1 μM compound): 255.0%; MOR agonist activity ([35S]GTPγS binding), FLNA-Binding Compound as Agonist 1 μM + BFNA (mu opiate receptor (MOR)): 116.5%; % DAMGO + BFNA (mu opiate receptor (MOR); [15]): 157.6%; % DAMGO (1 μM) (mu opiate receptor (MOR); [16]): 92.4%
COc1ccc(S(=O)(=O)N2CCCC3(C2)OCCN3S(=O)(=O)c2ccc(OC)cc2)cc1 (stereo not drawn) [Compound C0145M] | – | – | – | 112.2% | 193.0% | 87.0% | 95.3% | 88.7% | 289.2% | 45.1% | 53.7% | 58.3% | –
